Measured values published in US20080019916A1, “Methods and pharmaceuticals for treating muscle insulin resistance and related conditions” (University of Tasmania, priority 2001, published 2008).

How the values were obtained:
anaesthetised rats = assay: hyperinsulinaemic euglycaemic clamp in anaesthetised rats with 1-MX metabolism, glucose uptake and haemodynamic monitoring; format: in vivo, rat
Source text: From present knowledge there would appear to be at least three possible mechanisms to account for insulin-mediated capillary recruitment in skeletal muscle. Firstly and most likely, insulin may act at insulin receptors on endothelial cells and an IRS-1/2, PI3-K pathway to activate eNOS to produce NO, which in turn permeates adjacent vascular smooth muscle cells to activate soluble guanylyl cyclase and lower the vascular tone of pre-capillary sphincters. In favour of this mechanism is the fact that this process is NO-dependent and is thus consistent with our preliminary data (FIG. 4). There is compelling evidence that insulin acts directly through insulin receptors on endothelial cells to control nutritive capillary flow in skin. Secondly, insulin may act at insulin receptors on the vascular smooth muscle cells (22) via IRS-1/2, PI3-K, NOS, cGMP, MBP (myosin bound phosphatase) sequence to cause vasorelaxation. This mechanism would be NO-dependent, free of endothelial cell involvement in signalling and attractive as TNFα is known to inhibit insulin signalling in vascular smooth muscle cells, although to date this has been restricted to the ERK1/2 activation step (23). This mechanism would also lead ultimately to the activation of guanylyl cyclase and the production of cyclic GMP. Thirdly, insulin may act at insulin receptors on skeletal muscle to activate glucose transport and metabolism by the IRS-1/2, PI3-K, GLUT4 pathway to produce a metabolite (e.g. adenosine) that permeates adjacent tissue to react with appropriate receptors on endothelial/vascular smooth muscle cells to result in vasorelaxation. […] FIG. 4. The effect of L-NAME on insulin mediated increases in hindleg glucose uptake (FIG. 4a) and 1-MX metabolism (FIG. 4b) was examined. Euglycemic clamp conditions (10 mU/min/kg) were conducted for 2 h. […] This latter mechanism would resemble that occurring in exercise where vasodilatory metabolite(s) are released locally by working muscle to facilitate local blood flow and would be inhibited by agents (e.g. glucosamine) that inhibit muscle glucose metabolism. All three mechanisms should be wortmannin sensitive as PI3-K is expected to be involved. A variant of this third mechanism is where a form of NOS is activated in skeletal muscle independently of glucose metabolism. NO could then permeate neighbouring tissue as above. The terminal half of this fourth possible mechanism should be simulated by AMPK activation with AICAR addition (24). Overall, given that the mechanism of capillary recruitment by insulin in rat muscle is NO-dependent (FIG. 4) and that NO acts by producing cyclic GMP, agents that might enhance capillary recruitment by insulin should be targeted to enhance insulin's production of NO or cyclic GMP. In principle, 1-methylxanthine (1-MX) is an exogenous substrate for an enzyme located predominantly in the nutritive capillary endothelial cells (much less so in the non-nutritive route and myocytes). Consequently, passage of blood borne 1-MX through the nutritive vascular route leads to its conversion to the product 1-methylurate (1-MU). Chromatographic analysis of arterial and venous samples for 1-MX and 1-MU together with the total blood flow rate over the muscle bed allows the calculation of 1-MX metabolism. A number of our studies using the perfused rat hindlimb have shown tight correlation between nutritive flow (or the proportion of nutritive/non-nutritive flow) and 1-MX metabolism (12,13). Assay of new drugs acting to increase capillary recruitment in the presence of endogenous or exogenous insulin. This is done in an optional two tier manner, firstly in anaesthetized rats using the hyperinsulinaemic euglycaemic clamp (14) and secondly, in human forearm using a localized hyperinsulinaemic euglycaemic clamp (17). The initial testing in rats is optional, but allows rapid identification of those agents likely to be effective in humans. […]

[1] = tested on: skeletal muscle of the rat hindlimb; assay: contrast enhanced ultrasound/microbubbles (CEU) measurement of capillary blood volume in rat hindlimb muscle; format: in vivo
Source text: A second method was devised using the latest technologies in ultrasound. The ultrasound method relies on the increased echogenicity of albumin microbubbles which are continuously infused intravenously during data acquisition. The acoustic signal that is generated from the microbubbles when exposed to ultrasound produces tissue opacification which is proportional to the number of microbubbles within the ultrasound beam. Using harmonic pulsing methods essentially all microbubbles within the ultrasound beam are destroyed in response to a single pulse of high-energy ultrasound and an image is obtained. In the time interval between subsequent pulsing episodes, microbubbles flowing into the tissue are replenished within the beam and affect the intensity of the signal from the next high energy pulse. Repeating this process with pulse delays between 50 msec and 20 sec, the beam will be fully replenished and further increases in the time between each pulsing interval will not produce a change to tissue opacification. The rate of microbubble reappearance within the ultrasound beam provides an indication of capillary velocity and the degree of tissue opacification provides a measurement of capillary blood volume (CBV). Images are background-subtracted from images from a pulsing interval of 1000 ms which represents the replenishment of arteries and arterioles thus providing a measurement of capillary flow. The plateau tissue opacification (measured as videointensity) is the determination of capillary blood volume. Using this approach, changes in capillary blood volume in response to insulin and exercise have recently been assessed in the skeletal muscle of the rat hindlimb in vivo and compared to data obtained using 1-MX metabolism (ref 16; FIG. 1). FIG. 1. Comparison of the effect of saline, insulin (3 mU/min/kg, euglycemic clamp×120 min) or muscle contraction (2 Hz, 1 ms duration, monophasic square waves×10 min) on capillary blood volume as measured by microbubble videointensity using contrast enhanced ultrasound (FIG. 1a) or the hindlimb extraction of 1-MX (FIG. 1b) measured under identical conditions. […] Exercise is regarded by most physiologists as a “bench-mark” stimulus for capillary recruitment. […] A particular advantage of the ultrasound method is that it is relatively non-invasive and is suitable for human use (17). This opens up possibilities for its use in diagnosis in terms of impaired capillary recruitment in response to insulin and the monitoring of outcomes from therapeutic interventions that might act by increasing capillary recruitment. The ultrasound method relies on the increased echogenicity of albumin microbubbles that are continuously infused intravenously during data acquisition. […]

[2] = tested on: skeletal muscle of the rat hindlimb; conditions: physiologic doses of insulin (3 mU/min/kg clamp); cited from earlier work
[3] = infused with sub-maximal physiologic dose of insulin, vs insulin alone, FIG. 5b
[4] = insulin 3 mU/min/kg, anesthetized rat, before vs after, FIG. 7c

NC(=O)c1ncn([C@@H]2O[C@H](CO)[C@@H](O)[C@H]2O)c1N [AICAR, 5-aminoimidazole-4-carboxamide-1-β-D-ribofuranoside]
insulin-mediated hindleg glucose uptake (anaesthetised rats; infused with insulin, vs insulin alone, P<0.05, FIG. 6b): markedly enhanced | capillary recruitment as indicated by CEU (capillary blood volume) ([1]; infused alone, without insulin, FIG. 6a): recruited capillary flow on its own

COC(=O)[C@@H](N)CCCNC(=N)N[N+](=O)[O-] [L-NAME]
insulin-mediated increase in femoral blood flow (FBF) (anaesthetised rats; euglycemic clamp 10 mU/min/kg, 2 h, n=5): blocked the increase in FBF | mean arterial blood pressure (anaesthetised rats; euglycemic clamp 10 mU/min/kg, 2 h, n=5, raised from 100±4): 125±5 mmHg

CCCOc1ccccc1-c1nc(=O)c2[nH]nnc2[nH]1 [Zaprinast, 1,4-dihydro-5-(2-propoxyphenyl)-7H-1,2,3-triazolo(4,5-d)pyrimidin-7-one]
insulin-mediated capillary recruitment (hindleg 1-MX metabolism) (anaesthetised rats; infused with sub-maximal physiologic dose of insulin, vs insulin alone, FIG. 5a): significantly (P<0.05) enhanced | insulin-mediated glucose appearance (Ra) (anaesthetised rats; [3]): significantly (P<0.05) enhanced | insulin-mediated glucose disposal (Rd) (anaesthetised rats; [3]): significantly (P<0.05) enhanced

TNFα
effect on insulin-mediated capillary recruitment (anaesthetised rats; rats treated with the cytokine in vivo): completely block

insulin: hormone infused in euglycemic clamp
capillary blood volume (microbubble videointensity, CEU) ([1]; euglycemic insulin clamp 3 mU/min/kg, 120 min, vs baseline/saline, FIG. 1a): marked increases | plateau videointensity (A), microvascular volume [1, 4]: clearly higher | rate of microvascular filling (β) [1, 4]: no change | increase in capillary blood volume [2]: 2-3 fold
